Entries after “also recorded” stand apart in the source; their conditions may differ. Read-outs that look alike come from different tables or passages of the source. Marks after values point to notes of the source that are not given here.
Columns and labels:
in vitro = details: dog
IBV = test: CPE reduction assay, influenza B in MDCK cells; format: cell-based, influenza B virus (B/Ned/537/05); details: Influenza B virus, 72 h
Method: (§1) The process of CPE reduction assay for the influenza virus was described previously. The virus strains were A/Virginia/ATCC3/2009, A/PR/8 (A/H1N1), A/Victoria/361/11, A/HK/7/87 (A/H3N2), and B/Ned/537/05 (IBV). On day 0, Madin-Darby canine kidney (MDCK) cells in 96-well plates were infected with influenza virus at a multiplicity of infection (MOI) of 0.0004 plaque forming units (PFU) per cell, and that was incubated at 35 °C for 3 days. After the third day, virus-induced CPE and compound cytotoxicity were scored by microscopy, and the data were confirmed by formazan-based MTS cell viability assay (CellTiter 96® AQueous One Solution Cell Proliferation Assay from Promega, Madison, WI, USA). […] Compound cytotoxicity was expressed as the concentration of the compound causing minimal changes in cell morphology (MCC) and 50% cytotoxic concentration (CC50) based on the MTS assay.

H1N1 Hemagglutinin = H1N1 Hemagglutinin (Influenza A virus, UniProt P03452); test: SPR affinity toward immobilized H1N1 hemagglutinin; format: binding, influenza type H1N1 (A/Puerto Rico/8/34); details: for Kd: KD(app)
Sequence of H1N1 Hemagglutinin (P03452 18-565): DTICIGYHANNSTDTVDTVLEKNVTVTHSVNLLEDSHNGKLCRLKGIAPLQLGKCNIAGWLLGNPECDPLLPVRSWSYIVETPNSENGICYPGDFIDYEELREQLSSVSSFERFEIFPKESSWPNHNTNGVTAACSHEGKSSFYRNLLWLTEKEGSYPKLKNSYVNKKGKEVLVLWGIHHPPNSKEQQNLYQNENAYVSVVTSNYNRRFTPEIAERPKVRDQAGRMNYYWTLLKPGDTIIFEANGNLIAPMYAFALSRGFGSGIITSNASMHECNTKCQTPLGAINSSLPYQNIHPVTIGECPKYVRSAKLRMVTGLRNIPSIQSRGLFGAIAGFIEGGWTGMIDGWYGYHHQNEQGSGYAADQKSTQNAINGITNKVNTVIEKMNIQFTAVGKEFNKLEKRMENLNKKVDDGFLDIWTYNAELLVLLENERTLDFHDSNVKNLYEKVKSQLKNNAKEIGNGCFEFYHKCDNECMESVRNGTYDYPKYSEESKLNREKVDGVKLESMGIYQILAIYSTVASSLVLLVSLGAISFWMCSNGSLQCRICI
Method: (§2) SPR experiments were conducted using a BIAcore S200 instrument (Cytiva, Marlborough, MA, USA) employing a CM5 chip with a carboxymethyldextran surface (Cytiva, USA). Hemagglutinins (ThermoFisher Scientific, Invitrogen, Waltham, MA, USA) from influenza type H3N2 (A/Aichi/2/1968) and H1N1 (A/Puerto Rico/8/34), as well as neuraminidase (Invitrogen, USA) from H1N1 (A/California/04/2009), were immobilized on the chip surface following the standard amine coupling procedure outlined in the manufacturer’s instructions. This immobilization process was performed at a flow rate of 10 μL/min using PBST as the running buffer. The chip surface was initially activated using an N-ethyl-N-(3-dimethylaminopropyl)carbodiimide/N-hydroxysuccinimide solution. Subsequently, 50 μg/mL solutions of individual proteins in 10 mM sodium acetate, pH 5, were injected into channels 2, 3, and 4, respectively. To block any unreacted groups, all channels were treated with 1 M ethanolamine, resulting in a final response of 4500 RU for HAs and 2700 RU for neuraminidase. Channel 1 was activated and blocked in the same manner, without the injection of any protein, serving as a blank.
(§3) Tested compounds in a PBST working buffer (20 mM Na-phosphate, 150 mM NaCl, pH 7.4, 0.005% Tween 20, 5% DMSO) were injected into the chip at a flow rate of 30 μL/min at 25 °C. The injection duration was 3 min, followed by a 10 min buffer flow to facilitate spontaneous dissociation. Each compound was injected as a two-fold dilution series within a concentration range of 0.78–800 μM (2.44–2500 μM for sialic acid). After each compound concentration series, five buffer injections were performed to ensure complete dissociation. To determine the apparent KD toward the immobilized proteins, the steady-state responses of the blank-subtracted curves from each replicate were fitted using a single-site binding model.
(§4) In experiments conducted in a DMSO-free buffer (20 mM Na-phosphate, 150 mM NaCl, pH 7.4, 0.005% Tween 20), each replicate was followed by a two-fold dilution series of DMSO, matching the DMSO concentration in the compound solutions. In this case, the steady-state response of the blank-subtracted curve was corrected by the corresponding blank-subtracted DMSO steady-state response. The final values from each replicate were fitted using a single-site binding model using Origin 7 (OriginLab Corporation, Northampton, MA, USA).
(§5) For all experiments, the final KD(app) and Rmax values, along with their standard deviations, were obtained through statistical analysis based on three replicates.

IAV (A/H1N1) = test: CPE reduction assay, influenza A/H1N1 in MDCK cells; format: cell-based, influenza A virus A/H1N1 (A/Virginia/ATCC3/2009 or A/PR/8); details: Influenza A virus, H1N1, 72 h
Method: as §1

H3N2 Hemagglutinin = H3N2 Hemagglutinin (Influenza A virus, UniProt P03437); test: SPR affinity toward immobilized H3N2 hemagglutinin; format: binding, influenza type H3N2 (A/Aichi/2/1968); details: for Kd: KD(app)
Method: as §2, §3, §4, §5

[1] = test system: Madin-Darby canine kidney (MDCK) cells; details: dog, 3 days
IAV (A/H3N2) = test: CPE reduction assay, influenza A/H3N2 in MDCK cells; format: cell-based, influenza A virus A/H3N2 (A/Victoria/361/11 or A/HK/7/87); details: Influenza A virus, H3N2, 72 h
Method: as §1

H1N1 Neuraminidase = H1N1 Neuraminidase (Influenza A virus, UniProt C3W5S3); test: SPR affinity toward immobilized H1N1 neuraminidase; format: binding, influenza H1N1 (A/California/04/2009); details: PBST with 5% DMSO, 25 °C
Method: as §2, §3, §5

influenza A strains = test: Anti-influenza activity against influenza A strains (H1N1 and H3N2) in MDCK cells; format: cell-based, influenza A virus (H1N1 and H3N2 types); details: for activity against influenza A strains (in words): MDCK cells, H1N1 and H3N2
Method: as §1

hemagglutinin = details: cited from earlier work
[2] = Dynamic light scattering of aggregates; details: RSD of 3 measurements in brackets
[3] = MTS cell viability assay, day 3, read-out: Antiviral EC50, IBV, MTS
[4] = microscopic scoring of cytopathic effect, day 3, read-out: Antiviral EC50, IBV, CPE
[5] = H1N1 hemagglutinin, absence of DMSO, DMSO-free running buffer
[6] = MTS cell viability assay, day 3, read-out: Antiviral EC50, IAV (A/H1N1), MTS
[7] = microscopic scoring of cytopathic effect, day 3, read-out: Antiviral EC50, IAV (A/H1N1), CPE
[8] = H3N2 hemagglutinin, absence of DMSO, DMSO-free running buffer
[9] = MTS cell viability assay, day 3, read-out: Antiviral EC50, IAV (A/H3N2), MTS
[10] = microscopic scoring of cytopathic effect, day 3, read-out: Antiviral EC50, IAV (A/H3N2), CPE
[11] = 0.1 mg/mL (diluted with water), 25 °C
[12] = 1 mg/mL in water/DMSO 9:1, 25 °C

## CCCCCCCCOCC1OC(CCCSC2(C(=O)O)CC(O)C(NC(C)=O)C(C(O)C(O)CO)O2)C=CC1OCCCCCCCC (stereo not drawn) [Compound 18b]
In vitro
  CC50: 32 ± 8 µM
IBV; [3]
  EC50: > 100 µM
IBV; [4]
  EC50: > 100 µM
H1N1 Hemagglutinin; DMSO-free running buffer
  Rmax, H1N1 hemagglutinin, absence of DMSO: 783 ± 8 RU
H1N1 Hemagglutinin; [5]
  Kd: 286 ± 19 µM
IAV (A/H1N1); [6]
  EC50: 23 µM
IAV (A/H1N1); [7]
  EC50: 25 µM
H3N2 Hemagglutinin; DMSO-free running buffer
  Rmax, H3N2 hemagglutinin, absence of DMSO: 925 ± 23 RU
H3N2 Hemagglutinin; [8]
  Kd: 357 ± 23 µM
[1]
  Cytotoxicity MCC (minimum cytotoxic concentration): 63 ± 19 µM
IAV (A/H3N2); [9]
  EC50: 6.2 ± 3 µM
IAV (A/H3N2); [10]
  EC50: 4.8 ± 1 µM
H1N1 Neuraminidase
  Rmax, H1N1 Neuraminidase: 166 ± 53 RU
Influenza A strains
  activity against influenza A strains (in words): effective; also recorded: moderate effect
Influenza A strains; both determined by MTS assay, at best
  ratio of CC50 to EC50 (selectivity): ≤ 5 factor

## CCCCCCCCOCC1OC(OCCOCCOCCOCCOCCCSC2(C(=O)O)CC(O)C(NC(C)=O)C(C(O)C(O)CO)O2)C=CC1OCCCCCCCC (stereo not drawn) [Compound 23a]
In vitro
  CC50: 54 µM
IBV; [3]
  EC50: > 100 µM
IBV; [4]
  EC50: > 100 µM
H1N1 Hemagglutinin; DMSO-free running buffer
  Rmax, H1N1 hemagglutinin, absence of DMSO: 197 ± 24 RU
H1N1 Hemagglutinin; H1N1 Hemagglutinin, PBST with 5% DMSO, 25 °C, steady-state single-site fit
  Kd: 6220 ± 4040 µM
H1N1 Hemagglutinin; [5]
  Kd: 106 ± 36 µM
H1N1 Hemagglutinin; PBST with 5% DMSO, 25 °C
  Rmax, H1N1 Hemagglutinin: 505 ± 275 RU
IAV (A/H1N1); [6]
  EC50: > 100 µM
IAV (A/H1N1); [7]
  EC50: > 100 µM
H3N2 Hemagglutinin; DMSO-free running buffer
  Rmax, H3N2 hemagglutinin, absence of DMSO: 200 ± 23 RU
H3N2 Hemagglutinin; H3N2 Hemagglutinin, PBST with 5% DMSO, 25 °C, steady-state single-site fit
  Kd: 1220 ± 737 µM
H3N2 Hemagglutinin; [8]
  Kd: 134 ± 48 µM
H3N2 Hemagglutinin; PBST with 5% DMSO, 25 °C
  Rmax, H3N2 Hemagglutinin: 148 ± 43 RU
[1]
  Cytotoxicity MCC (minimum cytotoxic concentration): 40 ^d µM
IAV (A/H3N2); [9]
  EC50: > 100 µM
IAV (A/H3N2); [10]
  EC50: > 100 µM
H1N1 Neuraminidase
  Rmax, H1N1 Neuraminidase: 74 ± 13 RU
Influenza A strains
  activity against influenza A strains (in words): no anti-influenza effect

## CO[C@]1(C(=O)O)C[C@H](O)[C@@H](NC(C)=O)[C@H]([C@H](O)[C@H](O)CO)O1 [Methyl α-glycoside of sialic acid]
hemagglutinin
  binding to hemagglutinin (in words): bind weakly

## CCCCOC1C(OC)OC(COCCOCCOCCOCCn2cc(CSC3(C(=O)O)CC(O)C(NC(C)=O)C(C(O)C(O)CO)O3)nn2)C(OCc2ccc(OC)cc2)C1OCCCC (stereo not drawn) [Compound 12c]
In vitro
  CC50: > 100 µM
IBV; [3]
  EC50: > 100 µM
IBV; [4]
  EC50: > 100 µM
IAV (A/H1N1); [6]
  EC50: > 100 µM
IAV (A/H1N1); [7]
  EC50: > 100 µM
[1]
  Cytotoxicity MCC (minimum cytotoxic concentration): 100 ± 0 µM
IAV (A/H3N2); [9]
  EC50: > 100 µM
IAV (A/H3N2); [10]
  EC50: > 100 µM
[2]; [11]
  d (average diameter of particles, DLS): 111 (14.2%) ^a nm
[2]; [12]
  d (average diameter of particles, DLS): 103 (28.3%) ^a nm

## COC1(C(=O)O)CC(O)C(NC(C)=O)C(C(O)C(O)CO)O1 (stereo not drawn) [methyl β-glycoside]
hemagglutinin
  binding to hemagglutinin (in words): does not bind at all

## CCCCCCOCC1OC(CCCSC2(C(=O)O)CC(O)C(NC(C)=O)C(C(O)C(O)CO)O2)C=CC1OCCCCCC (stereo not drawn) [Compound 18c]
In vitro
  CC50: > 100 µM
IBV; [3]
  EC50: > 100 µM
IBV; [4]
  EC50: > 100 µM
IAV (A/H1N1); [6]
  EC50: > 100 µM
IAV (A/H1N1); [7]
  EC50: > 100 µM
[1]
  Cytotoxicity MCC (minimum cytotoxic concentration): 100 ^d µM
IAV (A/H3N2); [9]
  EC50: > 100 µM
IAV (A/H3N2); [10]
  EC50: > 100 µM

## CCCCCCCCCCOC1C(OC)OC(COCCOCCOCCOCCn2cc(CSC3(C(=O)O)CC(O)C(NC(C)=O)C(C(O)C(O)CO)O3)nn2)C(OCc2ccc(OC)cc2)C1OCCCCCCCCCC (stereo not drawn) [Compound 12a]
In vitro
  CC50: 64 µM
IBV; [3]
  EC50: > 100 µM
IBV; [4]
  EC50: > 100 µM
IAV (A/H1N1); [6]
  EC50: > 100 µM
IAV (A/H1N1); [7]
  EC50: > 100 µM
[1]
  Cytotoxicity MCC (minimum cytotoxic concentration): 20 ^d µM
IAV (A/H3N2); [9]
  EC50: > 100 µM
IAV (A/H3N2); [10]
  EC50: > 100 µM
[2]; [11]
  d (average diameter of particles, DLS): 170 (15.8%) ^a nm
[2]; [12]
  d (average diameter of particles, DLS): 126 (2.00%) ^a nm

## CCCCCCOCC1OC(OCCOCCOCCOCCOCCCSC2(C(=O)O)CC(O)C(NC(C)=O)C(C(O)C(O)CO)O2)C=CC1OCCCCCC (stereo not drawn) [Compound 23b]
In vitro
  CC50: > 100 µM
IBV; [3]
  EC50: > 100 µM
IBV; [4]
  EC50: > 100 µM
IAV (A/H1N1); [6]
  EC50: > 100 µM
IAV (A/H1N1); [7]
  EC50: > 100 µM
[1]
  Cytotoxicity MCC (minimum cytotoxic concentration): >100 µM
IAV (A/H3N2); [9]
  EC50: > 100 µM
IAV (A/H3N2); [10]
  EC50: > 100 µM
Influenza A strains
  activity against influenza A strains (in words): ineffective

## NC(=O)c1ncn([C@@H]2O[C@H](CO)[C@@H](O)[C@H]2O)n1 [Ribavirin, reference compound]
In vitro
  CC50: > 250 µM
IBV; [3]
  EC50: 5.4 µM
IBV; [4]
  EC50: 10 ± 4 µM
IAV (A/H1N1); [6]
  EC50: 25 ± 2 µM
IAV (A/H1N1); [7]
  EC50: 24 ± 6 µM
IAV (A/H3N2); [9]
  EC50: 24 ± 4 µM
IAV (A/H3N2); [10]
  EC50: 30 ± 6 µM

## CCCCCCCCCCOCC1OC(CCCSC2(C(=O)O)CC(O)C(NC(C)=O)C(C(O)C(O)CO)O2)C=CC1OCCCCCCCCCC (stereo not drawn) [Compound 18a]
In vitro
  CC50: 10 µM
IBV; [3]
  EC50: > 100 µM
IBV; [4]
  EC50: > 100 µM
IAV (A/H1N1); [6]
  EC50: > 100 µM
IAV (A/H1N1); [7]
  EC50: > 100 µM
[1]
  Cytotoxicity MCC (minimum cytotoxic concentration): 20 ^d µM
IAV (A/H3N2); [9]
  EC50: > 100 µM
IAV (A/H3N2); [10]
  EC50: > 100 µM
